Activity calls are given as the source filed them.
Experiments:
[1] = biological target: T1, Carboxy-terminal domain RNA polymerase II polypeptide A small phosphatase 1 (Homo sapiens, UniProt Q9GZU7); assay: CTDSP1 inhibitors, concentration-response, biochemical, absorbance readout, ultra-high-throughput screen actives (AID 540297); type: functional
T1 sequence (Q9GZU7 whole entry): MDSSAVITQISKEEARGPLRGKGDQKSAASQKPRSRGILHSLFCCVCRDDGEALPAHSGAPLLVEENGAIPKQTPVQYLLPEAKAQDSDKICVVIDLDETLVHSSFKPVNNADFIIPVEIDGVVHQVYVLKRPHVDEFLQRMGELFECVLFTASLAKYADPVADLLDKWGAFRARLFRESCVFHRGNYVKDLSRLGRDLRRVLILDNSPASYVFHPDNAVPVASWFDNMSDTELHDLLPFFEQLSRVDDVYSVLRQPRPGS

Protein RecA = biological target: T2, Protein RecA (Mycobacterium tuberculosis, UniProt P9WHJ3); assay: Fluorescence Cell-Free Homogeneous Dose Retest to Identify Inhibitors of RecA-Intein Splicing Activity. [Related pubchem assays (depositor defined):AID2097, AID2223, AID489010, AID492950]; type: functional
T2 sequence (P9WHJ3 whole entry): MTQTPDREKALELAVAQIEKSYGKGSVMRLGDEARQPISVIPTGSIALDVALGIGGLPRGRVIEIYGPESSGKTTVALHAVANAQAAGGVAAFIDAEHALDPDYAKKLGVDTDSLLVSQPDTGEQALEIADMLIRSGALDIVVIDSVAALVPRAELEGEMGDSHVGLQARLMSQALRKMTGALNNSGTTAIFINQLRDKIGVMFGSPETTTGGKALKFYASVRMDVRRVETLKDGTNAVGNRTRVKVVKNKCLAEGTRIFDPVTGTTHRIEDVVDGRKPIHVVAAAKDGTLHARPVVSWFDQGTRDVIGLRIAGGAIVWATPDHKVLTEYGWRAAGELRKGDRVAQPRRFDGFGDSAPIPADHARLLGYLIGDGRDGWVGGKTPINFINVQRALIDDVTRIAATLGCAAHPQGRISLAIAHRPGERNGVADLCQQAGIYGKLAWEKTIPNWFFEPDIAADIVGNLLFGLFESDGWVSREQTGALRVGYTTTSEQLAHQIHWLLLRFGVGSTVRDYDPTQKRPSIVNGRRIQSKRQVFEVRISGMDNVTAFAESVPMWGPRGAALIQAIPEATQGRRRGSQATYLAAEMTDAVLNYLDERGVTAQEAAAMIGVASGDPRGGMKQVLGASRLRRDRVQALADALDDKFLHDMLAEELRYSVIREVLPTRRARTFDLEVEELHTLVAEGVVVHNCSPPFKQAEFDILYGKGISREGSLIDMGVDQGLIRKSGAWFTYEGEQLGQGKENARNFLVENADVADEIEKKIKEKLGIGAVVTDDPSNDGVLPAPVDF

[2] = biological target: T3, Replicative DNA helicase DnaB (Mycobacterium tuberculosis, UniProt P9WMR3); assay: DnaB intein splicing inhibitors, dose response, biochemical, cell-free fluorescence (AID 449749); type: functional
T3 sequence (P9WMR3 whole entry): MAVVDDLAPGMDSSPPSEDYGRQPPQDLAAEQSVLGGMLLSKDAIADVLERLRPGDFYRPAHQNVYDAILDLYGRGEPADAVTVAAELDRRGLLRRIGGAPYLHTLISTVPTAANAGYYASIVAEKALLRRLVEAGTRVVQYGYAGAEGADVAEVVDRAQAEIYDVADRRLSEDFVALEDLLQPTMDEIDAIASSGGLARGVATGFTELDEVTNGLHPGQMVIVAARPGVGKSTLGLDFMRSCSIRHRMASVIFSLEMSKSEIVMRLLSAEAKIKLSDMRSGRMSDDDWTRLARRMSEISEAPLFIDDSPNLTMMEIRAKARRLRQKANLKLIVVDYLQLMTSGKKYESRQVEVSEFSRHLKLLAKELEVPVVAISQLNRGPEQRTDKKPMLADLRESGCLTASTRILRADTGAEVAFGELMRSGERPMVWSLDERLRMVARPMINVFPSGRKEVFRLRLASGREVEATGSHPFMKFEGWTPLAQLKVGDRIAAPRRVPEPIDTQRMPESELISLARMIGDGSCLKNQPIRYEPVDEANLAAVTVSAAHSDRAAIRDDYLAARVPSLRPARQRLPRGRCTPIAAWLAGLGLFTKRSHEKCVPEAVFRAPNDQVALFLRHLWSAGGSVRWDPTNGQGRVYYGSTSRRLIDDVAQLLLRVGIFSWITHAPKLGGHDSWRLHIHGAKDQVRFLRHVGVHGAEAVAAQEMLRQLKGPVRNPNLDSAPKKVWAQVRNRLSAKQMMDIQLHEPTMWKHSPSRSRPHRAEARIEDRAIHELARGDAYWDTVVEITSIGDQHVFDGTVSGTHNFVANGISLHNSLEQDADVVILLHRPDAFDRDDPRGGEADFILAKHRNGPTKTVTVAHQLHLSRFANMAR

BJ [3] = assay: BJ-TERT-LT-ST fibroblast viability loss – cell-based, RAS-independent, luminescence, dose response (AID 1935); type: functional; conditions: Homo sapiens;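 also: BJ fibroblasts immortalized with TERT plus LT and ST oncogenes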
BJ [4] = assay: BJ-TERT fibroblast viability loss – cell-based, RAS-independent, luminescence, dose response (AID 1933); type: functional; conditions: Homo sapiens
[5] = DRD fibroblast viability loss – cell-based, non-viral oncogenic, luminescence, dose response (AID 1934); type: functional; conditions: Homo sapiens
[6] = biological target: T4, Heat shock factor protein 1 (Mus musculus, UniProt P38532); assay: decrease of HSF1-responsive luciferase luminescence – cell-based, NIH3T3, dose retest, confirmation (AID 2382); type: functional;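 also: NIH3T3 fibroblasts with HSF1-driven luciferase reporter stressed by proteasome inhibitor MG132; luminescence from HSF1-driven luciferase expression after 8 hours of MG132 stress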
T4 sequence (P38532 whole entry): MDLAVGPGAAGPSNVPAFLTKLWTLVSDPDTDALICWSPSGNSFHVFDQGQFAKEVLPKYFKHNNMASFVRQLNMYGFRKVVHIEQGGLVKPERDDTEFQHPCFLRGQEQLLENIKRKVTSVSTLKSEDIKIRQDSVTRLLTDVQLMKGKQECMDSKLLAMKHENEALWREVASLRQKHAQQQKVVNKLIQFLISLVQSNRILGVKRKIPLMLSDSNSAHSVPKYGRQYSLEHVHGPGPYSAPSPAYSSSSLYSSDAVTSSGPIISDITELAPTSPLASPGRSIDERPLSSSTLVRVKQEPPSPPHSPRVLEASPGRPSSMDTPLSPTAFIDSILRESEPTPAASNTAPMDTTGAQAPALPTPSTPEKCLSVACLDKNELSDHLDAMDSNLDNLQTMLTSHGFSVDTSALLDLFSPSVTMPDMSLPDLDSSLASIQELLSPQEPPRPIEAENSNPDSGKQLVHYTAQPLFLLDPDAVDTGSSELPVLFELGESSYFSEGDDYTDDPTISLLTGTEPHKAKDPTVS

BJ [7] = assay: cells; type: functional, cell-based; conditions: Homo sapiens
[8] = biological target: T5, Calpain-2 catalytic subunit (Sus scrofa, UniProt P43367); assay: m-calpain protease blockers, concentration series – biochemical, fluorogenic peptide substrate, dose response (AID 1420); type: functional
T5 sequence (P43367 whole entry): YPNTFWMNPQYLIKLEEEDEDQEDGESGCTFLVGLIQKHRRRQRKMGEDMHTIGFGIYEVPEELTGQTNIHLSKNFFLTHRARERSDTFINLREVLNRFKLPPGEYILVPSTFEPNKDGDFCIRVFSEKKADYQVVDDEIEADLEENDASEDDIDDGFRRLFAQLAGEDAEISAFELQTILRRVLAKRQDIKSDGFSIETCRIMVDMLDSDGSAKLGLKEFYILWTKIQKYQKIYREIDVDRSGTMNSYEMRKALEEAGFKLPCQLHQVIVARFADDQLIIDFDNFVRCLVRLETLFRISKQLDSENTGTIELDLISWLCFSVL

[9] = biological target: Induced myeloid leukemia cell differentiation protein Mcl-1 (Homo sapiens, UniProt Q07820); type: functional
Cytochrome P450 2C19 = Cytochrome P450 2C19 (Homo sapiens, UniProt P33261); assay: Cytochrome panel assay with activity outcomes. Panel member name: p450-cyp2c19 Compounds with AC50 equal or less than 10 uM are considered active; type: functional; conditions: read-out: AC50
[10] = NIH3T3 cell viability loss – ATP luminescence, mouse fibroblasts, counter-screen, dose response (AID 2010); type: functional, cell-based;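 also: cells exposed to compound for about 90 hours before reading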
[11] = Trypanosoma cruzi growth suppression in host cells – NIH3T3 host cells, beta-gal luminescence, confirmation (AID 2044); type: functional, cell-based;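 also: intracellular parasites grown in NIH/3T3 mouse fibroblasts as host cells; luminescent beta-galactosidase reporter signal from transgenic T. cruzi replicating inside host cells; inhibitors lower the luminescence signal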
[12] = NIH-3T3 fibroblast cytotoxicity, dose response, cytotoxicity control, cell-based, fluorescence, Alamar Blue, secondary assay (AID 2327); type: functional;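 also: NIH-3T3 mouse fibroblasts cultured with fluconazole at 8 µg/mL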
[13] = fluconazole-exposed Candida albicans growth modulators – fluorescence, retest, confirmation (AID 2467); type: functional, cell-based
[14] = HIV-1 AD8 envelope cell-cell fusion blockers – cherry-pick, dose response (AID 652062); type: functional, cell-based;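 also: luciferase signal from cell-cell fusion driven by HIV-1 clade B AD8 Env; potency is for inhibitors of fusion seen as a drop in luminescence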
[15] = blockers of HIV-1 envelope-mediated cell-cell fusion – cherry-pick, dose response (AID 652057); type: functional, cell-based

Chain of Induced myeloid leukemia cell differentiation protein Mcl-1 (Q07820 whole entry): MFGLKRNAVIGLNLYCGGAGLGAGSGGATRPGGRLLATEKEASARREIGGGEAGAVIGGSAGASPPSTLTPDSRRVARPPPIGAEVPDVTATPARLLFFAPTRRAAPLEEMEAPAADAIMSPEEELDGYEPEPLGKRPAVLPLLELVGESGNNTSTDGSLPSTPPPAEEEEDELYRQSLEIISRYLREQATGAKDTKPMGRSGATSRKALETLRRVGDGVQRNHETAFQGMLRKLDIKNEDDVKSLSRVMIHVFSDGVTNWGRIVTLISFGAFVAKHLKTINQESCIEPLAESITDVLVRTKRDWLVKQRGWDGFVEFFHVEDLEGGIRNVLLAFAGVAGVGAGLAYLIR
Chain of Cytochrome P450 2C19 (P33261 whole entry): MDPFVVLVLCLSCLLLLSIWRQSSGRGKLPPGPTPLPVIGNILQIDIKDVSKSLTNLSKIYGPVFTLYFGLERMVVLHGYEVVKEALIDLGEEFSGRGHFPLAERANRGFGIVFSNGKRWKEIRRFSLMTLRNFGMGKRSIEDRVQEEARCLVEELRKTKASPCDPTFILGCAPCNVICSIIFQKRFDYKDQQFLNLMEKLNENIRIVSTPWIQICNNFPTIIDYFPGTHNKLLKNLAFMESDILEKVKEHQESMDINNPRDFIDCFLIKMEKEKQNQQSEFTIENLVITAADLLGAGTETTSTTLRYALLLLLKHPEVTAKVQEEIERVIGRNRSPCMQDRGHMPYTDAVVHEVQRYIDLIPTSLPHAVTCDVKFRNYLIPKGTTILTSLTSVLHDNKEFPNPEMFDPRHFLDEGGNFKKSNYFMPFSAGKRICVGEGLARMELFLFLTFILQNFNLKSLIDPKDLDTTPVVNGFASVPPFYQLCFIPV

O=C(CCS(=O)(=O)c1ccc(Br)cc1)NCCC1=CCCCC1
IC50 [1]: 9.5 µM (active)

O=C(Cc1ccccc1)c1c[nH]c(C(=O)C(Cl)(Cl)Cl)c1
EC50 (Protein RecA): 4.99 µM (active) | AC50 [2]: 4.92 µM (active)

O=C(CCl)Nc1ccccc1C(=O)c1ccccc1
EC50 (BJ [3]): > 150 µM (inconclusive) | EC50 (BJ [4]): > 150 µM (not active) | EC50 [5]: 35.3 µM (active) | EC50 [6]: > 195 µM (not active) | EC50 (BJ [7]): > 150 µM (not active)

CS(=O)(=O)N(CC(=O)NCCc1ccccc1)c1cccc([N+](=O)[O-])c1
IC50 [8]: 5.74 µM (not active)

Cc1cc(=O)oc2cc(NC(=O)c3cc(F)ccc3F)ccc12
IC50 [1]: 6.83 µM (active)

O=C(c1ccc2c(c1)OCO2)N1CCN(c2ccc(C(F)(F)F)cn2)CC1
IC50 [8]: < 0.4 µM (not active)

Cc1ccc(NC2=NC(=O)/C(=C/C=C/c3ccco3)S2)cc1
IC50 [9]: 8.32 µM (active)

Cc1onc(-c2c(Cl)cccc2Cl)c1C(=O)n1nnc2ccccc21
EC50 (Protein RecA): 26.5 µM (active) | AC50 [2]: 16.4 µM (active)

C[n+]1cn(CC(O)COCc2ccccc2)c2ccccc21 (stereo not given)
IC50 [1]: 10.8 µM (active) | AC50 (Cytochrome P450 2C19): 15.8 µM (inconclusive)

CCC(C(=O)OCC(=O)Nc1ccccc1-c1ccccc1)c1ccccc1 (stereo not given)
IC50 [8]: 9.96 µM (not active)

COc1ccc(N2CCN(C(=O)CCC(=O)c3cc(C)sc3C)CC2)cc1
IC50 [8]: 30.3 µM (not active)

CC1=NN(c2ccccc2)C(=O)/C1=C\c1cc(C)n(-c2cccnc2)c1C
EC50 (Protein RecA): 88.8 µM (active) | AC50 [2]: 44.8 µM (active)

COCCNC(=O)NC(=O)CN1CCCc2ccccc21
IC50 [8]: < 0.4 µM (not active)

COc1cccc2c(C)c(C(=O)O)[nH]c12
EC50 [6]: 5.27 µM (active) | IC50 [9]: 2.81 µM (active)

COC(=O)CC1(c2cccc3ccccc23)C(=O)c2ccccc2C1=O
EC50 (Protein RecA): 4.46 µM (active) | AC50 [2]: 5.91 µM (active)

CC1=Nc2ccccc2N=C(NC(=O)CN2CCN(c3ccccc3)CC2)C1c1ccccc1 (stereo not given)
EC50 [10]: > 30 µM (not active) | IC50 [8]: > 50 µM (not active) | EC50 [11]: 2.06 µM (active)

O=C(COC(=O)/C=C/c1ccco1)Nc1ccc(F)cc1Cl
IC50 [1]: 36.6 µM (active)

Cc1nn(Cc2ccccc2)c2c1C(c1ccc(Cl)cc1)C(C#N)=C(N)O2 (stereo not given)
EC50 (Protein RecA): 3.58 µM (active) | AC50 [2]: 6.41 µM (active)

O=C(Nc1ccc(Cl)c(Cl)c1)N1N=CCC1c1ccccc1 (stereo not given)
IC50 [8]: 8.45 µM (not active)

COc1ccccc1-c1cnnc(S)n1
EC50 (Protein RecA): 111 µM (active)

O=C(Nc1ccc(NC(=O)c2cccs2)cc1)c1ccc(Br)o1
IC50 [1]: 7.45 µM (active) | EC50 [12]: > 160 µM (inconclusive) | EC50 [13]: 2.22 µM (active)

COc1cc2c(C#CCO)c(-c3ccc(C#N)cc3)oc(=O)c2cc1OC
IC50 [1]: 8.45 µM (active)

O=C1c2cccc3cc([N+](=O)[O-])cc(c23)C(=O)N1/N=C/c1ccc(O)cc1O
IC50 [9]: 1.44 µM (active)

O=C(CNc1ccc2ccccc2c1)N/N=C/C=C/c1cccc([N+](=O)[O-])c1
IC50 [9]: 6.79 µM (active)

O=C(C[C@H]1CC[C@H]2[C@@H](COC[C@H](O)CN2C(=O)Nc2ccc(Cl)c(Cl)c2)O1)NCc1ccncc1
AC50 [14]: 26.5 µM (active) | AC50 [15]: 31.5 µM (active)

CN(C)CCCNC(=O)[C@H]1[C@H](CO)[C@H]2Cn3c(ccc(C4=CCCC4)c3=O)[C@H]2N1CCC(F)(F)F
AC50 [14]: 1.09 µM (active)

O=C(NCCNCc1ccccc1)c1ccco1
IC50 [1]: 9.15 µM (active)

CN1CCN(c2ccc([N+](=O)[O-])cc2/C=N/NC(=O)c2cccc([N+](=O)[O-])c2)CC1
IC50 [9]: 3.57 µM (active)

COc1cc(/C=N/NC(=O)c2ccc([N+](=O)[O-])cc2Cl)cc(Br)c1O
IC50 [9]: 15.2 µM (not active)

Reference: ChEMBL document CHEMBL1201862, “PubChem BioAssay data set” (2004)
